Structures can show the parent of a compound that is named as a salt. Where two headings read alike, the source gives them in different places.
System: γ-secretase; production of amyloid beta protein Aβ(1-42)
Assay: Cell-Based γ-Secretase Assay with ELISA Readout
Conditions: human WT-APP overexpressing CHO cells
Method: The ability of compounds to modulate production of amyloid beta protein A6(1-42) was determined using human WT-APP overexpressing CHO cells. Cells were plated at 22,000 cells/100 μL well in 96 well tissue culture treated, clear plates (Falcon) in DMEM/F12 based medium and incubated for 24 hours at 37° C. Compounds for testing were diluted in 100% DMSO to achieve an eleven points, half log, dose response for IC50 determinations. Compounds were added in fresh medium to achieve 1% final DMSO. Appropriate vehicle and inhibitor controls were added to obtain maximum and minimum inhibition values for the assay before the plates were incubated for about 24 hours at 37° C.
Coating of ELISA assay plates was initiated by addition of 50 μL/well of an in-house Aβ(1-42) specific antibody at (4 μg/mL) in 0.1 M NaHCO3 (pH 9.0) into black 384-well Maxisorp® plates (Nunc) and incubated overnight at 4° C. The capture antibody was then aspirated from the ELISA assay plates and 100 μL/well of Blocking Buffer (Dulbecco's PBS, 1.5% BSA (Sigma A7030)) added. Ambient temperature incubation was allowed to proceed for a minimum of two hours before washing 2×100 μL with Wash Buffer (Dulbecco's PBS, 0.05% Tween 20). Assay Buffer (Dulbecco's PBS, 1.0% BSA (Sigma A7030), 0.05% Tween 20) 20 μL/well was then added.
After incubation overnight at 37° C., 5% CO2, 40 μL (in duplicate) of experimental conditioned media were transferred into wells of the blocked ELISA plates containing the capture antibody, followed by overnight incubation at 4° C.
After overnight incubation of the ELISA assay plates at 4° C., unbound Aβ peptides were removed thorough (4×100 μL) washes with Wash Buffer. Europium (Eu) labeled (custom labeled, Perkin Elmer) Aβ(1-16) 6e10 Monoclonal Antibody (Covance #SIG-39320 was added, (50 μL/well Eu-6e10 @ 1:5000, 20 uM EDTA) in Assay Buffer. Incubation at ambient temperature for a minimum of 2 hours was followed by (4×100 μL) washes with Wash Buffer, before 50 μL/well of Delfia Enhancement Solution (PerkinElmer) was added. Following a one hour ambient temperature incubation, the plates were read on an EnVision plate reader (PerkinElmer) using standard DELFIA TRF settings. Data analysis including inhibitory IC50 determination was performed using nonlinear regression fit analysis (in-house software) and the appropriate plate mean values for the maximum and minimum inhibition controls.

[1] = geometric mean of 2-4 determinations unless otherwise indicated (footnote 10: 6-8; footnote 14: single determination), read-out: Aβ 42B IC50
[2] = footnote 8: single determination, read-out: Aβ 42B IC50 (nM) (Geometric Mean of 2-8 Determinations)
[3] = geometric mean of 2 determinations unless otherwise indicated (footnote 2: 6-14 determinations), read-out: Aβ 42B IC50

SMILES | IC50 [1] | also measured
O=C(O)C[C@@H]1CC[C@@H](N2C[C@@H]3CC[C@@H](C3)C2)[C@H](c2ccc(C(F)(F)F)cc2)C1 [Example 25, {(1R,3S,4R)-4-[(1R,5S)-3-azabicyclo[3.2.1]oct-3-yl]-3-[4-(trifluoromethyl)phenyl]cyclohexyl} acetic acid] |  | IC50 [2]: 8840 nM
O=C(O)C[C@@H]1CC[C@@H](N(CC2CCCC2)CC2CCCC2)[C@H](c2ccc(Cl)cc2)C1 [Example 6, [(1R,3S,4R)-4-[bis(cyclopentylmethyl)amino]-3-(4-chlorophenyl)cyclohexyl]acetic acid] |  | IC50 [3]: 719 nM
CC(C)CCN(CCC(F)(F)F)[C@@H]1CO[C@@H](CC(=O)O)C[C@H]1c1ccc(C(F)(F)F)cc1 [Example 10, 2-{(2R,4S,5S)-5-[(3-methylbutyl)(3,3,3-trifluoropropyl)amino]-4-[4-(trifluoromethyl)phenyl]tetrahydro-2H-pyran-2-yl} acetic acid, hydrochloride salt] |  | IC50 [2]: 4770 nM
CC(C)CCN(CCC(F)(F)F)[C@@H]1CC[C@@H](CC(=O)O)C[C@H]1c1ccc(C(F)(F)F)nc1 [Example 12, {(1R,3S,4R)-4-[(3-methylbutyl) (3,3,3-trifluoro-propyl)amino]-3-[6-(trifluoromethyl)pyridin-3-yl]cyclohexyl}acetic acid] |  | IC50 [2]: 1370 nM
O=C(O)C[C@@H]1CC[C@@H](N(CC2CCCC2)CC2CCCC2)[C@H](c2ccc(C(F)(F)F)cc2)C1 [Example 1, {(1R,3S,4R)-4-[bis(cyclopentylmethyl)amino]-3-[4-(trifluoromethyl)phenyl]cyclohexyl}acetic acid] |  | IC50 [3]: 229 nM
O=C(O)C[C@@H]1CC[C@@H](N(Cc2cccc(F)c2)CC2CCCC2)[C@H](c2ccc(C(F)(F)F)cc2)C1 [Example 28, {(1R,3S,4R)-4-[(cyclopentyl-methyl)(3-fluorobenzyl)amino]-3-[4-(trifluoromethyl)phenyl]cyclohexyl} acetic acid, hydro-chloride salt] |  | IC50 [2]: 230 nM
CC(C)CCN(CC1CCCCO1)[C@@H]1CC[C@@H](CC(=O)O)C[C@H]1c1ccc(C(F)(F)F)cc1 (stereo partly drawn) [Example 17, {[1R,3S,4R)-4-[(3-methylbutyl) (tetrahydro-2H-pyran-2-ylmethyl)amino]-3-[4-(trifluoromethyl)phenyl]cyclohexyl} acetic acid] |  | IC50 [2]: 1510 nM

More lines, main results first:

IC50 [1] | SMILES | also measured
5630 nM | O=C(O)C[C@@H]1CC[C@@H](N(CCC2CCCCO2)CC2CCCC2)[C@H](c2ccc(C(F)(F)F)cc2)C1 (stereo partly drawn) [Example 41, {(1R,3S,4R)-4-{(cyclopentylmethyl)[2-(tetrahydro-2H-pyran-2-yl)ethyl]amino}-3-[4-(trifluoromethyl)phenyl]cyclohexyl}acetic acid, trifluoroacetate salt] | 
1840 nM | O=C(O)C[C@@H]1CC[C@@H](N(CC2CCCC2)CC2CCCC2)[C@H](c2cccc(Cl)c2)O1 [Example 47, [(2S,5R,6S)-5-[bis(cyclopentylmethyl)amino]-6-(3-chlorophenyl)tetrahydro-2H-pyran-2-yl]acetic acid, ammonium salt] | 
484 nM | O=C(O)C[C@@H]1CC[C@@H](N(CCC(F)(F)F)CC2CCCC2)[C@H](c2ccc(C(F)(F)F)cc2)C1 [Example 45, {(1R,3S,4R)-4-[(cyclopentylmethyl)(3,3,3-trifluoropropyl)amino]-3-[4-(trifluoromethyl)phenyl]cyclohexyl}acetic acid, trifluoroacetate salt] | 
171 nM | CCOc1ccc(CN(CC(C)C)[C@@H]2CC[C@@H](CC(=O)O)C[C@H]2c2ccc(C(F)(F)F)cc2)cc1 [Example 57, {(1R,3S,4R)-4-[(4-ethoxybenzyl)(isobutyl)amino]-3-[4-(trifluoromethyl)phenyl]cyclohexyl}acetic acid, trifluoroacetate salt] | 
162 nM | CCC(CC)CN(CC1CCCC1)[C@@H]1CC[C@@H](CC(=O)O)C[C@H]1c1ccc(C(F)(F)F)cc1 [Example 43, {(1R,3S,4R)-4-[(cyclopentylmethyl)(2-ethylbutyl)amino]-3-[4-(trifluoromethyl)phenyl]cyclohexyl}acetic acid, trifluoroacetate salt] | 
359 nM | CCC(C)CN(CC1CCCC1)[C@@H]1CC[C@@H](CC(=O)O)C[C@H]1c1ccc(C(F)(F)F)cc1 (stereo partly drawn) [Example 34, {(1R,3S,4R)-4-[(cyclopentylmethyl)(2-methylbutyl)amino]-3-[4-(trifluoromethyl)phenyl]cyclohexyl}acetic acid, ammonium salt] | 
477 nM | CCC(CC)CN(CC1CCCC1)[C@@H]1CC[C@@H](CC(=O)O)C[C@H]1c1ccc(Cl)cc1 [Example 49, {(1R,3S,4R)-3-(4-chlorophenyl)-4-[(cyclopentylmethyl)(2-ethylbutyl)amino]cyclohexyl} acetic acid, ammonium salt] | 
840 nM | CCc1csc(CN(CC2(F)CCCCC2)[C@@H]2CC[C@@H](CC(=O)O)C[C@H]2c2ccc(C(F)(F)F)cc2)n1 [Example 64, {(1R,3S,4R)-4-{[(4-ethyl-1,3-thiazol-2-yl)methyl][(1-fluorocyclohexyl)methyl]amino}-3-[4-(trifluoromethyl)phenyl]cyclohexyl}acetic acid, trifluoroacetate salt] | 
336 nM | CC(C)CN(CC1=CCC2CC1C2(C)C)[C@@H]1CC[C@@H](CC(=O)O)C[C@H]1c1ccc(C(F)(F)F)cc1 (stereo partly drawn) [Example 63, {(1R,3S,4R)-4-{[(6,6-dimethylbicyclo[3.1.1]hept-2-en-2-yl)methyl](isobutyl)amino}-3-[4-(trifluoromethyl)phenyl]cyclohexyl}acetic acid, trifluoroacetate salt] | 
7310 nM | CC(C)CCN(C1CCOCC1)[C@@H]1CC[C@@H](CC(=O)O)C[C@H]1c1ccc(C(F)(F)F)cc1 [Example 30, {(1R,3S,4R)-4-[(3-methylbutyl)(tetrahydro-2H-pyran-4-yl)amino]-3-[4-(trifluoromethyl)phenyl]cyclohexyl}acetic acid, ammonium salt] | 
